Laboratory results taken from patent publication US11739122B2, “Glycopeptide antibiotic compounds, methods for producing the same, and uses thereof” (Academia Sinica, priority 2019, dated 2023).
In brackets after ≈: the same amount, converted by molar mass.

What was measured:
[1] = test system: MRSA ATCC 43300; assay: MIC, broth microdilution; format: cell-based, Staphylococcus aureus; conditions: Staphylococcus aureus
Summary of the method: (§1)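 Step one, pick colonies from 18-24 h agar plates into broth until 0.5 McFarland turbidity; step two, dilute to approximately 1×10^8 CFU mL^−1; step three, incubate at 37° C for 18-24 h and score visible growth.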

[2] = test system: MRSA ATCC 700698 hVISA; assay: MIC, broth microdilution; format: cell-based, Staphylococcus aureus; conditions: Staphylococcus aureus
Summary of the method: as §1

[3] = test system: MRSA ATCC 700787 VRSA; assay: MIC, broth microdilution; format: cell-based, Staphylococcus aureus; conditions: Staphylococcus aureus
Summary of the method: as §1

[4] = test system: MRSA ATCC 700789 VRSA; assay: MIC, broth microdilution; format: cell-based, Staphylococcus aureus; conditions: Staphylococcus aureus
Summary of the method: as §1

[5] = test system: MRSA ATCC BAA-38; assay: MIC, broth microdilution; format: cell-based, Staphylococcus aureus; conditions: Staphylococcus aureus
Summary of the method: as §1

[6] = test system: MRSA ATCC BAA-39; assay: MIC, broth microdilution; format: cell-based, Staphylococcus aureus; conditions: Staphylococcus aureus
Summary of the method: as §1

[7] = test system: MRSA ATCC BAA-44; assay: MIC, broth microdilution; format: cell-based, Staphylococcus aureus; conditions: Staphylococcus aureus
Summary of the method: as §1

[8] = test system: S. aureus ATCC 29213; assay: MIC, broth microdilution; format: cell-based, Staphylococcus aureus; conditions: Staphylococcus aureus, ATCC29213
Summary of the method: as §1

[9] = test system: E. faecalis ATCC 29302; assay: MIC, broth microdilution; format: cell-based; conditions: Enterococcus faecalis, ATCC29302
Summary of the method: as §1

[10] = test system: VRE ATCC 700221 (vanA); assay: MIC, broth microdilution; format: cell-based, enterococci; conditions: Enterococcus
Summary of the method: as §1

[11] = test system: VRE ATCC 700425 (vanC); assay: MIC, broth microdilution; format: cell-based, enterococci; conditions: Enterococcus
Summary of the method: as §1

[12] = test system: VRE ATCC 700802 (vanB); assay: MIC, broth microdilution; format: cell-based, enterococci; conditions: Enterococcus
Summary of the method: as §1

[13] = target: T1, Orf2* (Actinoplanes teichomyceticus, UniProt A0A561VD00); assay: ITC binding affinity; conditions: ITC versus Orf2*
Protocol: (§2) Isothermal Titration Calormetry (ITC) Analysis
(§3) A stock solution (50 mM) was prepared by dissolving r6,GlcNAc pseudoaglycone (9) in 50% DMSO. The 1 mM protein solutions of Orf2*, Orf2*T and Dbv27 were prepared in a 50 mM HEPES buffer solution at pH 8.0. The solution (50 mM HEPES, pH8.0 and 10% DMSO) that contained compound 9 (1 mM) or S-adenosylmethionine (SAM) (1 mM) in a 40 μL injection syringe was titrated into the Orf2*, Orf2*T or Dbv27 (0.1 mM) protein solution, which was placed in the sample cell of a 200 μL volume. Each titration consisted of 16 injections of a 2 μL4 s^−1 duration in an interval of 150 seconds. Data analysis was performed by software.

[14] = target: T2, Orf2*T (Actinoplanes teichomyceticus, UniProt A0A561VD00, F193Y/S98A/V121A); assay: ITC binding affinity; conditions: ITC versus Orf2*T
T2 sequence (A0A561VD00 with tags, fused parts or gaps S98A/V121A/F193Y): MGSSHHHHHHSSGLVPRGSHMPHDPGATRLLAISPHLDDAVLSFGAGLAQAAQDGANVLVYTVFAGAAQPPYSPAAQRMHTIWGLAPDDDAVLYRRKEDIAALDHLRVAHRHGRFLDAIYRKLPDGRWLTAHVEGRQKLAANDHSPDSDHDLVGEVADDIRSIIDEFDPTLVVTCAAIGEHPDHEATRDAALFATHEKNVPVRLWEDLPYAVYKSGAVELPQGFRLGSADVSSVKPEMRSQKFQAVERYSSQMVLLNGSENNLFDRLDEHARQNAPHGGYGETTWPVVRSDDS
Protocol: as §2, §3

[15] = target: T1, Orf2*; assay: Deacetylation catalytic specificity; format: biochemical; conditions: substrate of Orf2* (WT)

T1 sequence (A0A561VD00 entry or part of it): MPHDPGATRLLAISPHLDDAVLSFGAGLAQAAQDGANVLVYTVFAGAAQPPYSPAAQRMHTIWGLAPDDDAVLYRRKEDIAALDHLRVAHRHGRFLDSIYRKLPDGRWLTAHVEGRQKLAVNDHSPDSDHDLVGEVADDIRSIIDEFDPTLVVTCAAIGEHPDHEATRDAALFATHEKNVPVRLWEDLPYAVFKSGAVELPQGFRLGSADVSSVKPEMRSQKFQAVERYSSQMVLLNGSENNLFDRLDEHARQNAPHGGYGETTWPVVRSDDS

| kcatKm^−1 [15] [M⁻¹ s⁻¹] | Compound | MIC [1] [µg/mL] | MIC [2] [µg/mL] | MIC [3] [µg/mL] | MIC [4] [µg/mL] | MIC [5] [µg/mL] | MIC [6] [µg/mL] | MIC [7] [µg/mL] | MIC [8] [µg/mL] | MIC [9] [µg/mL] | MIC [10] [µg/mL] | MIC [11] [µg/mL] | MIC [12] [µg/mL] | Kd [13] [µM] | Kd [14] [µM] |
| --- | --- | --- | --- | --- | --- | --- | --- | --- | --- | --- | --- | --- | --- | --- | --- |
| – | CC(=O)N[C@H]1[C@H](O[C@@H]2c3ccc(c(Cl)c3)Oc3cc4cc(c3O)Oc3ccc(cc3Cl)C[C@H]3NC(=O)[C@H](N)c5ccc(O)c(c5)Oc5cc(O)cc(c5)[C@H](NC3=O)C(=O)N[C@H]4C(=O)N[C@H]3C(=O)N[C@@H]2C(=O)N[C@H](C(=O)O)c2cc(O)cc(O)c2-c2cc3ccc2O)O[C@H](CO)[C@@H](O)[C@@H]1O [Compound 9, r6,GlcNAc Tei-pseudoaglycone] | 0.25 (≈ 0.178 µM) | 1 (≈ 0.713 µM) | 0.5 (≈ 0.357 µM) | 2 (≈ 1.43 µM) | 0.25 (≈ 0.178 µM) | 0.125 (≈ 0.0892 µM) | 0.125 (≈ 0.0892 µM) | 0.25 (≈ 0.178 µM) | 2 (≈ 1.43 µM) | > 128 | 4 (≈ 2.85 µM) | 4 (≈ 2.85 µM) | 1420 ± 1100 | 125 ± 14 |
| 377300 | CC(=O)N[C@H]1[C@H](Oc2c3cc4cc2Oc2ccc(cc2Cl)[C@@H](O)[C@@H]2NC(=O)[C@H](NC(=O)[C@@H]4NC(=O)[C@H]4NC(=O)[C@@H](Cc5ccc(c(Cl)c5)O3)NC(=O)[C@H](N)c3ccc(O)c(c3)Oc3cc(O)cc4c3)c3ccc(O)c(c3)-c3c(O)cc(O)cc3[C@@H](C(=O)O)NC2=O)O[C@H](CO)[C@@H](O)[C@@H]1O [Compound 5, r4,GlcNAc Tei-pseudoaglycone] | – | – | – | – | – | – | – | – | – | – | – | – | – | – |
